Measured values as given in PMC9000887, “Novel 1,2,3-Triazole-Coumarin Hybrid Glycosides and Their Tetrazolyl Analogues: Design, Anticancer Evaluation and Molecular Docking Targeting EGFR, VEGFR-2 and CDK-2” (Molecules, 2022).

Legend:
[1] = test system: human prostate (PC-3) cancer cell line; assay: MTT cytotoxicity assay, PC-3; details: Homo sapiens; for inhibition at 100 µM: read-out: % Inhibition PC-3; for IC50: read-out: IC50 (Mean ± SEM) PC-3
Protocol: (§1) After 48 h incubation, the medium was aspirated and then 40 μL MTT salt (2.5 mg/mL) was added for a further 4 h. […] Doxorubicin was used as the positive control and 0.5% DMSO was used as the negative control.

[2] = test system: human melanoma (A-375) cancer cell line; assay: MTT cytotoxicity assay, A-375; details: Homo sapiens; for inhibition at 100 µM: A-375, read-out: % Inhibition A-375; for IC50: A-375, read-out: IC50 (Mean ± SEM) A-375
Protocol: as §1

[3] = test system: human pancreatic (Paca-2) cancer cell line; assay: MTT cytotoxicity assay, Paca-2; details: Homo sapiens; for inhibition at 100 µM: PaCa-2, read-out: % Inhibition Paca-2; for IC50: PaCa-2, read-out: IC50 (Mean ± SEM) Paca-2
Protocol: as §1

[4] = test system: human melanoma (Mel-501) cancer cell line; assay: MTT cytotoxicity assay, Mel-501; details: Homo sapiens; for inhibition at 100 µM: read-out: % Inhibition Mel-501; for IC50: read-out: IC50 (Mean ± SEM) Mel-501
Protocol: as §1

[5] = test system: human colon (Caco-2) cancer cell line; assay: MTT cytotoxicity assay, Caco-2; details: for % Inhibition Caco-2: Caco-2, at 100 µM, MTT, (-) No activity detected; for IC50: read-out: IC50 (Mean ± SEM) Caco-2, Caco-2, MTT, three independent determinations
Protocol: as §1

VEGFR-2 = VEGFR-2 (Homo sapiens, UniProt P35968); assay: biochemical
Chain of VEGFR-2 (P35968 20-1356): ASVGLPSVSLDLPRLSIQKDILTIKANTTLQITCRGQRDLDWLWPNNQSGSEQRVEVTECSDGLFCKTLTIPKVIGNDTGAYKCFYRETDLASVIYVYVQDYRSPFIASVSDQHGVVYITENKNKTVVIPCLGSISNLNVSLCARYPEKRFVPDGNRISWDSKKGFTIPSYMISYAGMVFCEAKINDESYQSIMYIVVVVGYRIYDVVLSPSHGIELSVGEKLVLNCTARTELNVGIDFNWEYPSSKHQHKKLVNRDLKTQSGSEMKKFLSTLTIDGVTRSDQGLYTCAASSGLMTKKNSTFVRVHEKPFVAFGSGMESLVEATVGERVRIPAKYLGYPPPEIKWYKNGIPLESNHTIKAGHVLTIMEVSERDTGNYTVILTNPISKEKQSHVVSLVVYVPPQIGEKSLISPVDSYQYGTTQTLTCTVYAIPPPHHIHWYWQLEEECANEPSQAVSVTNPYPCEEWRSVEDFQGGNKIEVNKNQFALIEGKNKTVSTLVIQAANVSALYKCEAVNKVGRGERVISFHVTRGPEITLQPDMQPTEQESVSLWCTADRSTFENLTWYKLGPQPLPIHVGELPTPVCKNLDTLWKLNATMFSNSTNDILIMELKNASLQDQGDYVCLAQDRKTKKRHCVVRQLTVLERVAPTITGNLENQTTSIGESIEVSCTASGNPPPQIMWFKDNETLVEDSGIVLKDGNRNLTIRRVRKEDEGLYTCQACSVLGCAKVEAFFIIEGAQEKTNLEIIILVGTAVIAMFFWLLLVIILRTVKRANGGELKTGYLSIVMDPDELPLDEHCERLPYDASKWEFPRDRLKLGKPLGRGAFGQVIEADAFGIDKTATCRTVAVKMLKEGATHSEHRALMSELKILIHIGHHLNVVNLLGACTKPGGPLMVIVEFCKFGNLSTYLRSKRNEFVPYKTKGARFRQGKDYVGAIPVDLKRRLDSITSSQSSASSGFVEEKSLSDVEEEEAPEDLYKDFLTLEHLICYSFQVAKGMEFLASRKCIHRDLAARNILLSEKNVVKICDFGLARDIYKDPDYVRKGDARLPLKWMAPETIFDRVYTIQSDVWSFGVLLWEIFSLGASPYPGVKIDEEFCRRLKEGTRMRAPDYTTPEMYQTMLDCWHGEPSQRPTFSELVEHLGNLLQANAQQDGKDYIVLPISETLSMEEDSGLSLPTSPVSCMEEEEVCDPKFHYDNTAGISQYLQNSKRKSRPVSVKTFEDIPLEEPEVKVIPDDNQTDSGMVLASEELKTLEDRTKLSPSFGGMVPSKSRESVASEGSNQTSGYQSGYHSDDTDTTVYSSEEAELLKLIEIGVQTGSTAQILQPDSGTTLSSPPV
Protocol: The cells were harvested, and the homogenates were prepared in saline using a tight pestle homogenizer until complete cell disruption. The kit used a double-antibody sandwich enzyme-linked immunosorbent assay (ELISA) to determine the level of human VEGFR-2 in samples. A monoclonal antibody for VEGFR-2 was pre-coated onto 96-well plates. The test samples were added to the wells and a biotinylated detection polyclonal antibody from goat specific for VEGFR-2 was added, subsequently followed by washing with PBS buffer. Avidin–Biotin–Peroxidase complex was added, and the unbound conjugates were washed away with PBS buffer. HRP substrate TMB was used to visualize HRP enzymatic reaction. TMB was catalysed by HRP to produce a blue colour product that changed into yellow after the addition of acidic stop solution. The density of yellow colour is proportional to the human VEGFR-2 amount of the sample captured in the plate. The chroma of colour and the concentration of the human VEGFR-2 of the samples were positively correlated and the optical density was determined at 450 nm. The level of human VEGFR-2 in samples was calculated (pg/mL) as duplicate determinations from the standard curve. The % inhibition was calculated in comparison to control untreated cells.

EGFR = EGFR (Homo sapiens, UniProt P00533); assay: In vitro kinase inhibitory assessment, EGFR (Kinase-Glo luminescence); type: biochemical; details: mean of three values; read-out: IC50 (Mean ± SEM) EGFR
Chain of EGFR (P00533 25-1210): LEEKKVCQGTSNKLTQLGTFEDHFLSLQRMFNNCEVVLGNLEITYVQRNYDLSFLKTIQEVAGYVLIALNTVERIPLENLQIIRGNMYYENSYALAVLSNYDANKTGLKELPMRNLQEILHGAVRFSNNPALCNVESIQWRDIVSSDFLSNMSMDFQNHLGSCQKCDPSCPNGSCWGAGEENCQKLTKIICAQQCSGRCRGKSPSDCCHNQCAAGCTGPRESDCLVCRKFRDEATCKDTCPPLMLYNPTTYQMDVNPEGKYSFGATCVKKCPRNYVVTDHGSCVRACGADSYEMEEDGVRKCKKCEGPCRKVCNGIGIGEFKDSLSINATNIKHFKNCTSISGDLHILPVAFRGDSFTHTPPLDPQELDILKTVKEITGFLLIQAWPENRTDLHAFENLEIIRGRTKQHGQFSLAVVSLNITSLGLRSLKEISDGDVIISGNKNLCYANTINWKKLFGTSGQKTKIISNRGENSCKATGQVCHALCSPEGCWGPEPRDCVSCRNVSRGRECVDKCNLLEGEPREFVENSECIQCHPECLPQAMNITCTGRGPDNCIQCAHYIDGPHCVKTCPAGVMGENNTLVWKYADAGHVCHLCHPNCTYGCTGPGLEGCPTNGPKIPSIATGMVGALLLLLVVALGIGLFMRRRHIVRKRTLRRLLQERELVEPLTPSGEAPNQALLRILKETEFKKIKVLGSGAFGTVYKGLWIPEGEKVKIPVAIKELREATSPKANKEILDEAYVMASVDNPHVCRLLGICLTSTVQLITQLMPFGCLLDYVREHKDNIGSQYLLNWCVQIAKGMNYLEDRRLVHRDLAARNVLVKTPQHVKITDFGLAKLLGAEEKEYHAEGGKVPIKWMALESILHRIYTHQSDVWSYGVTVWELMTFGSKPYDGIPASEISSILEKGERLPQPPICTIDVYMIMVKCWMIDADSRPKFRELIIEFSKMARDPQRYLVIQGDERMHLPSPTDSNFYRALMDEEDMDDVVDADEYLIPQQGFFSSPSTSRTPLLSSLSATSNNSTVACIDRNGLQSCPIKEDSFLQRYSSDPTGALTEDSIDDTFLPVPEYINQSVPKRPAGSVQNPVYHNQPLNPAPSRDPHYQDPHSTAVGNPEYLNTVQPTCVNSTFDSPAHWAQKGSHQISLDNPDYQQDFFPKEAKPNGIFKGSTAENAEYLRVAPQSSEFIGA

CDK-2/cyclin A2 = CDK-2/cyclin A2 (Homo sapiens, UniProt P24941); assay: In vitro kinase inhibitory assessment, CDK-2/cyclin A2 (ELISA); type: biochemical; details: mean of three values; read-out: IC50 (Mean ± SEM) CDK-2/Cyclin A2
Protocol: Assay of CDK-2/cyclin A2 was achieved through ELISA using an affinity tag labelled capture antibody. Adding the samples and the standard to the wells was carried out after the addition of the antibody mix. After the incubation period, the unrestrained substance was discarded and the wells were washed. The added TMB (3,3′,5,5′-tetramethylbenzidine) substrate was prompted by Horseradish peroxidase (HRP) and blue coloration appeared. This reaction was stopped with the addition of stop solution to complete the change in colour from blue to yellow. The created signals were equivalent to the quantity of bound analyte and Robonik P2000 ELISA reader was used to record the intensity at a certain wavelength (450 nm). The concentrations of the screened compounds were calculated through the plotted curve.

Structure (SMILES) | melting point [°C] | IC50 (VEGFR-2) [µM] | IC50 (EGFR) [µM] | IC50 (CDK-2/cyclin A2) [µM] | inhibition at 100 µM [1] [%] | inhibition at 100 µM [2] [%] | inhibition at 100 µM [3] [%] | inhibition at 100 µM [4] [%] | IC50 [4] [µM] | IC50 [1] [µM] | IC50 [2] [µM] | % Inhibition Caco-2 [5] [%] | IC50 [5] [µM] | IC50 [3] [µM]
CC(=O)OC[C@H]1O[C@@H](n2nnc(COc3ccc4c(-c5ccccc5)cc(=O)oc4c3)n2)[C@H](OC(C)=O)[C@@H](OC(C)=O)[C@H]1OC(C)=O [Compound 5, 4-Phenyl-7-((1-(2,3,4,6-tetra-O-actyl-β-D-galactopyranosyl)-2H-tetrazol-5-yl)methoxy)-2H-chromen-2-one] | 122 to 124 | – | – | – | 15 | 23.1 | 56.9 | 68.4 | 72.1 ± 1.2 | – | – | – | – | –
O=c1cc(-c2ccccc2)c2ccc(OCc3nn[nH]n3)cc2o1 [Compound 3, 7-((2H-Tetrazol-5-yl)methoxy)-4-phenyl-2H-chromen-2-one] | 219 to 221 | – | – | – | 12.2 | 55.3 | 55.6 | 48.4 | – | – | – | – | – | –
N#CCOc1ccc2c(-c3ccccc3)cc(=O)oc2c1 [Compound 2, 2-((2-Oxo-4-phenyl-2H-chromen-7-yl)oxy)acetonitrile] | 183 to 184 | – | – | – | 10.5 | 6.5 | 44.1 | 35.6 | – | – | – | – | – | –
O=c1cc(-c2ccccc2)c2ccc(O)cc2o1 [Compound 1, 7-hydroxy-4-phenyl-2H-chromen-2-one] | – | – | – | – | 55.7 | 95 | 79 | 96.2 | 28.6 ± 0.4 | – | 12.9 ± 0.6 | 40.5 | – | 62.3 ± 1.3
O=c1cc(-c2ccccc2)c2ccc(OCc3nnn(CCOCCO)n3)cc2o1 [Compound 9, 7-((2-(2-(2-Hydroxyethoxy)ethyl)-2H-tetrazol-5-yl)methoxy)-4-phenyl-2H-chromen-2-one] | – | – | – | – | 95.9 | 84.1 | 94.7 | 97.7 | 30.2 ± 0.5 | 47.4 ± 1.4 | 15 ± 0.04 | 99.5 | 38.1 ± 0.4 | 28.3 ± 0.7
COc1cccc2c1C(=O)c1c(O)c3c(c(O)c1C2=O)C[C@@](O)(C(=O)CO)C[C@@H]3O[C@H]1C[C@H](N)[C@H](O)[C@H](C)O1 [Doxorubicin, reference compound] | – | – | – | – | – | – | – | – | 3.5 ± 0.3 | 6.8 ± 0.2 | 4.5 ± 0.07 | – | 3.7 ± 0.2 | 19.4 ± 0.5

Now from value to compound, other results behind:

melting point [°C] | IC50 (VEGFR-2) [µM] | IC50 (EGFR) [µM] | IC50 (CDK-2/cyclin A2) [µM] | Structure (SMILES) | inhibition at 100 µM [1] [%] | inhibition at 100 µM [2] [%] | inhibition at 100 µM [3] [%] | inhibition at 100 µM [4] [%] | IC50 [4] [µM] | IC50 [1] [µM] | IC50 [2] [µM] | % Inhibition Caco-2 [5] [%] | IC50 [5] [µM] | IC50 [3] [µM]
195 to 196 | – | – | – | O=c1cc(-c2ccccc2)c2ccc(OCc3nnn([C@@H]4OC[C@@H](O)[C@H](O)[C@H]4O)n3)cc2o1 [Compound 8] | 98.1 | 95 | 96.5 | 98.1 | 19.4 ± 0.4 | 48.2 ± 0.7 | 13.9 ± 0.2 | 97 | 52.5 ± 1.3 | 23.8 ± 0.9
89 to 90 | 40 ± 0.05 | 53 ± 0.15 | 0.48 ± 0.15 | CC(=O)OC1COC(n2cc(COc3ccc4c(-c5ccccc5)cc(=O)oc4c3)nn2)C(OC(C)=O)C1OC(C)=O [Compound 15, 4-Phenyl-7-((1-(2,3,4-tria-O-acetyl-β-D-xylopyranosyl)-1H-1,2,3-triazol-4-yl)methoxy)-2H-chromen-2-one] | 98.2 | 94.7 | 95 | 97.8 | 4.1 ± 0.3 | 12.5 ± 0.9 | 9.9 ± 1 | 99.3 | 20.4 ± 0.6 | 16.9 ± 0.9
93 to 94 | – | – | – | CC(=O)OC[C@H]1O[C@@H](n2cc(COc3ccc4c(-c5ccccc5)cc(=O)oc4c3)nn2)[C@H](OC(C)=O)[C@@H](OC(C)=O)[C@H]1OC(C)=O [Compound 14, 4-Phenyl-7-((1-(2,3,4,6-tetra-O-acetyl-β-D-galactopyranosyl)-1H-1,2,3-triazol-4-yl)methoxy)-2H-chromen-2-one] | 80.2 | 96.8 | 94.9 | 77.1 | 65.1 ± 1.2 | 51.3 ± 1.6 | 12.4 ± 0.3 | 89.8 | 70.2 ± 1.4 | 33.4 ± 0.6
177 to 178 | – | – | – | O=c1cc(-c2ccccc2)c2ccc(OCc3cn([C@@H]4OC[C@@H](O)[C@H](O)[C@H]4O)nn3)cc2o1 [Compound 18, 4-Phenyl-7-((1-(β-D-Xylopyranosyl)-1H-1,2,3-triazol-4-yl)methoxy)-2H-chromen-2-one] | 91.4 | 97.9 | 96.9 | 98.5 | 10 ± 0.1 | 37.6 ± 0.4 | 8.5 ± 0.3 | 99.4 | 61.9 ± 1.3 | 36.4 ± 1.2
204 to 205 | – | – | – | O=c1cc(-c2ccccc2)c2ccc(OCc3nnn([C@@H]4O[C@H](CO)[C@H](O)[C@H](O)[C@H]4O)n3)cc2o1 [Compound 7] | 0 | 13.8 | 21.3 | 22.3 | – | – | – | – | – | –
180 to 182 | – | – | – | O=c1cc(-c2ccccc2)c2ccc(OCc3cn([C@@H]4O[C@H](CO)[C@@H](O)[C@H](O)[C@H]4O)nn3)cc2o1 [Compound 16, 4-Phenyl-7-((1-(β-D-glucopyranosyl)-1H-1,2,3-triazol-4-yl)methoxy)-2H-chromen-2-one] | 95.8 | 97.5 | 96.9 | 99.1 | 26.5 ± 0.7 | 36.4 ± 1.1 | 16.3 ± 0.6 | 99 | 48.1 ± 0.4 | 23.8 ± 1.1
116 to 117 | – | – | – | C#CCOc1ccc2c(-c3ccccc3)cc(=O)oc2c1 [Compound 11, 4-Phenyl-7-(prop-2-yn-1-yloxy)-2H-chromen-2-one] | 16.7 | 9.1 | 58.1 | 44 | – | – | – | 0 | – | –
185 to 186 | – | – | – | O=c1cc(-c2ccccc2)c2ccc(OCc3cn([C@@H]4O[C@H](CO)[C@H](O)[C@H](O)[C@H]4O)nn3)cc2o1 [Compound 17, 4-Phenyl-7-((1-(β-D-galactopyranosyl)-1H-1,2,3-triazol-4-yl)methoxy)-2H-chromen-2-one] | 97.3 | 98.5 | 96.3 | 98.6 | 35.8 ± 0.7 | 41 ± 2.1 | 39.6 ± 0.5 | 95.6 | 48.1 ± 0.8 | 33.3 ± 0.5
131 to 132 | 45 ± 0.1 | 66 ± 0.01 | 0.5 ± 0.11 | CC(=O)OC[C@H]1O[C@@H](n2cc(COc3ccc4c(-c5ccccc5)cc(=O)oc4c3)nn2)[C@H](OC(C)=O)[C@@H](OC(C)=O)[C@@H]1OC(C)=O [Compound 13, 4-Phenyl-7-((1-(2,3,4,6-Tetra-O-acetyl-β-D-glucopyranosyl)-1H-1,2,3-triazol-4-yl)methoxy)-2H-chromen-2-one] | 95.6 | 96.9 | 97.6 | 98.5 | 16.7 ± 0.3 | 22.3 ± 0.6 | 14.5 ± 0.2 | 99.6 | 40.5 ± 0.9 | 14.6 ± 1.1
